The text below walks through data of patent US6359145B1, “Imidazole compounds” (Fujisawa Pharmaceutical Co., Ltd., priority 1998, dated 2002).

Each structure is given as a SMILES string.

Tested on in the first data set: not given
Test: not given
Conditions: not given
Consider `NC(=O)c1cn(C(CO)CCc2cccc(C(F)(F)F)c2)cn1` (stereo not drawn), for which the melting point – broadly, the temperature of the solid-liquid transition – lay in the range of 103 to 106 °C.
For the compound `NC(=O)c1cn(C(CO)CCc2ccccc2)cn1` (stereo not drawn) [Example 1, 1-(1-Hydroxy-4-phenyl-2-butyl)imidazole-4-carboxamide], the melting point fell in the range of 127 to 129.5 °C.
Consider `NC(=O)c1cn(C(CO)COc2ccccc2)cn1` (stereo not drawn), for which the melting point lay in the range of 147.5 to 149.5 °C.
For the compound `C[C@H](O)[C@@H](CCc1cccc(Cl)c1Cl)n1cnc(C(N)=O)c1`, the melting point was 70 to 75 °C.
Still for that read-out and setting: the value for `NC(=O)c1cn(C(CO)c2ccccc2)cn1` (stereo not drawn) was 147 to 149 °C; that for `CCOC(=O)c1cccc(CCC(CO)n2cnc(C(N)=O)c2)c1` (stereo not drawn) was 92 to 95 °C; that for `N#Cc1cn(C(CO)CCc2ccccc2)cn1` (stereo not drawn) was 111 to 115 °C.
In turn, `COC(=O)Cc1cccc(CCC(CO)n2cnc(C(N)=O)c2)c1` (stereo not drawn) returned a melting point of 138.5 to 141 °C.
With `CCCCCCC(CO)n1cnc(C(N)=O)c1` (stereo not drawn), the melting point lay in the range of 97.5 to 100.5 °C.
In turn, `Cc1ccccc1CC[C@H]([C@H](C)O)n1cnc(C(N)=O)c1` came in with a melting point of 60 to 62 °C.
Turning to `CCCC(CO)n1cnc(C(N)=O)c1` (stereo not drawn), the melting point came to 160 °C.
On to `Nc1nc(-c2cn([C@H](CO)CCc3ccccc3)cn2)n[nH]1`, for which the melting point is 80 °C (dec.).
With `Cc1ccc(CCC(CO)n2cnc(C(N)=O)c2)cc1` (stereo not drawn), the melting point was 138 to 141 °C.

For a further data set, the system named is TNF-α and IL-10 amounts in plasma of LPS-injected BALB/c mice. Kind of data set: Endotoxin-induced Cytokine Production. It is filed as in vivo. The following applies: 320 mg/kg, administered 30 minutes before LPS 0.1 mg/kg i.v.; plasma one hour after LPS; ELISA. On the procedure:
Endotoxin-induced Cytokine Production
BALB/c mice (male, 7 weeks old) were injected i.v. with 0.1 mg/kg of lipopolysaccharides (LPS) in a total volume of 0.2 ml saline. Heparinized blood samples were taken one hour after LPS injection and plasma was collected by centrifugation. TNF-α (inflammatory cytokine) and IL-10 (anti-inflammatory cytokine) amounts in plasma were assayed by ELISA. Test compounds were administered 30 minutes before LPS injection.
(In general: ELISA stands for enzyme-linked immunosorbent assay.)
Regarding `NC(=O)c1cn(C(CO)CCc2ccccc2)cn1` (stereo not drawn) [Example 1, 1-(1-Hydroxy-4-phenyl-2-butyl)imidazole-4-carboxamide], the “IL-10” value was determined as 137 ± 14 pg/mL and the “TNF-α” value was determined as 3.1 ± 0.5 ng/mL.
